These results are taken from ChEMBL document CHEMBL4428102, “Discovery of an Orally Bioavailable Gonadotropin-Releasing Hormone Receptor Antagonist” (J Med Chem, 2016).

A word on the IC50: it is the point on the concentration scale where inhibition reaches its midpoint.

For one experiment, the target named is T1, Gonadotropin-releasing hormone receptor (Homo sapiens, UniProt P30968).
T1 sequence (P30968 whole entry): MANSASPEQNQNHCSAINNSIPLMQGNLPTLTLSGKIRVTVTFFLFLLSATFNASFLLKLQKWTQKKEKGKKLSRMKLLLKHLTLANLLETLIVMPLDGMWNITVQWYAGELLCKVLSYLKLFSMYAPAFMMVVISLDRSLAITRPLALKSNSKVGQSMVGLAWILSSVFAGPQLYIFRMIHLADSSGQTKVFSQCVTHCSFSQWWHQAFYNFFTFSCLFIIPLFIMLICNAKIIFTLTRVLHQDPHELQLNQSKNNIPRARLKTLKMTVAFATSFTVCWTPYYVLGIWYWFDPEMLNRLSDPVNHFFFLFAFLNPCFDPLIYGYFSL
The experiment is described as follows: Displacement of [125I]D-Trp6-LHRH from human GnRH receptor expressed in CHO-K1 cell membranes incubated for 1 hr by competitive binding assay. For orientation: In a radioligand displacement assay an active substance lowers the binding of a labelled ligand.
The compound `Cc1c(N2CCN(Cc3ccccc3C#N)CC2)c(=O)n(C[C@H](N)c2ccccc2)c(=O)n1Cc1c(F)cccc1F` showed a half-maximal inhibitory concentration (IC50) of 6.8 nM. For `Cc1c(N2CCN(Cc3cccc(Cl)c3)CC2)c(=O)n(C[C@H](N)c2ccccc2)c(=O)n1Cc1c(F)cccc1F`, the IC50 came to 3.1 nM. Same read-out and setting: with `Cc1c(N2CCN(Cc3cccc(C(F)(F)F)c3F)CC2)c(=O)n(C[C@H](N)c2ccccc2)c(=O)n1Cc1c(F)cccc1F` the figure was 1.1 nM; with `Cc1c(N2CCN(Cc3cccc(C(F)(F)F)c3)CC2)c(=O)n(C[C@H](N)c2ccccc2)c(=O)n1Cc1c(F)cccc1F`, 0.91 nM; with `Cc1c(N2CCN(Cc3ccccc3Cl)CC2)c(=O)n(C[C@H](N)c2ccccc2)c(=O)n1Cc1c(F)cccc1F`, 19.1 nM. Take `Cc1c(N2CCN(Cc3ccc([N+](=O)[O-])cc3)CC2)c(=O)n(C[C@H](N)c2ccccc2)c(=O)n1Cc1c(F)cccc1F`: the IC50 is 36.9 nM. On the same count and under the same terms, the figure for `Cc1c(N2CCN(Cc3cccc4cccnc34)CC2)c(=O)n(C[C@H](N)c2ccccc2)c(=O)n1Cc1c(F)cccc1C(F)(F)F` is above 100 nM; for `Cc1ccccc1CN1CCN(c2c(C)n(Cc3c(F)cccc3F)c(=O)n(C[C@H](N)c3ccccc3)c2=O)CC1` it is 73.8 nM; for `Cc1c(N2CCN(S(=O)(=O)c3ccccc3)CC2)c(=O)n(C[C@H](N)c2ccccc2)c(=O)n1Cc1c(F)cccc1F` it is above 100 nM. The same measure, in the same setting: the figure for `Cc1c(N2CCN(Cc3cccc(F)c3)CC2)c(=O)n(C[C@H](N)c2ccccc2)c(=O)n1Cc1c(F)cccc1F` is 3.8 nM; for `Cc1c(N2CCN(CC3CCCCC3)CC2)c(=O)n(C[C@H](N)c2ccccc2)c(=O)n1Cc1c(F)cccc1F` it is above 1000 nM.

For `Cc1c(N2CCCCC2)c(=O)n(C[C@H](N)c2ccccc2)c(=O)n1Cc1c(F)cccc1F`, the IC50 stood at 129 nM. Same read-out and setting: with `COc1cccc(CN2CCN(c3c(C)n(Cc4c(F)cccc4F)c(=O)n(C[C@H](N)c4ccccc4)c3=O)CC2)c1` the figure was 14.8 nM; with `Cc1c(N2CCN(Cc3cccc(C(=O)O)c3)CC2)c(=O)n(C[C@H](N)c2ccccc2)c(=O)n1Cc1c(F)cccc1C(F)(F)F`, above 100 nM; with `Cc1c(N2CCN(Cc3cccc(OC(F)(F)F)c3)CC2)c(=O)n(C[C@H](N)c2ccccc2)c(=O)n1Cc1c(F)cccc1F`, 1.5 nM.

Turning to `Cc1cccc(CN2CCN(c3c(C)n(Cc4c(F)cccc4F)c(=O)n(C[C@H](N)c4ccccc4)c3=O)CC2)c1`, the IC50 was above 100 nM. The same measure, in the same setting: the figure for `Cc1c(N2CCN(Cc3ccc[nH]c3=O)CC2)c(=O)n(C[C@H](N)c2ccccc2)c(=O)n1Cc1c(F)cccc1C(F)(F)F` is above 100 nM; for `COc1ccccc1CN1CCN(c2c(C)n(Cc3c(F)cccc3F)c(=O)n(C[C@H](N)c3ccccc3)c2=O)CC1` it is above 1000 nM; for `Cc1c(N2CCC(Cc3ccccc3)CC2)c(=O)n(C[C@H](N)c2ccccc2)c(=O)n1Cc1c(F)cccc1F` it is 34.2 nM. On the same count and under the same terms, the figure for `Cc1c(N2CCN(C(=O)c3ccccc3)CC2)c(=O)n(C[C@H](N)c2ccccc2)c(=O)n1Cc1c(F)cccc1F` is above 100 nM. Same read-out and setting: the figure for `Cc1c(N2CCN(Cc3ccccc3OC(F)(F)F)CC2)c(=O)n(C[C@H](N)c2ccccc2)c(=O)n1Cc1c(F)cccc1F` is above 100 nM.

`Cc1c(N2CCCCC2C)c(=O)n(C[C@H](N)c2ccccc2)c(=O)n1Cc1c(F)cccc1F` (some centres not stated): the IC50 was above 100 nM. The same measure, in the same setting: with `Cc1c(N2CCN[C@@H](Cc3ccccc3)C2)c(=O)n(C[C@H](N)c2ccccc2)c(=O)n1Cc1c(F)cccc1F` the figure was above 100 nM. The compound `Cc1c(N2CCN[C@H](Cc3ccccc3)C2)c(=O)n(C[C@H](N)c2ccccc2)c(=O)n1Cc1c(F)cccc1F` yielded an IC50 above 100 nM. On the same count and under the same terms, the figure for `Cc1c(N2CCN(Cc3cccc(C#N)c3)CC2)c(=O)n(C[C@H](N)c2ccccc2)c(=O)n1Cc1c(F)cccc1F` is 5 nM; for `Cc1c(N2CCN(Cc3ccccc3F)CC2)c(=O)n(C[C@H](N)c2ccccc2)c(=O)n1Cc1c(F)cccc1F` it is 4.1 nM.

The compound `Cc1c(N2CCCC(c3ccccc3)C2)c(=O)n(C[C@H](N)c2ccccc2)c(=O)n1Cc1c(F)cccc1F` (some centres not stated) showed an IC50 above 100 nM.

The compound `Cc1c(N2CCN(Cc3cccnc3)CC2)c(=O)n(C[C@H](N)c2ccccc2)c(=O)n1Cc1c(F)cccc1F` showed an IC50 of 13.9 nM. Still for that read-out and setting: with `Cc1c(N2CCCC(Cc3ccccc3)C2)c(=O)n(C[C@H](N)c2ccccc2)c(=O)n1Cc1c(F)cccc1F` (some centres not stated) the figure was above 100 nM.

In another experiment the target is T1, Gonadotropin-releasing hormone receptor. The experiment is described as follows: Antagonist activity against human GnRH receptor expressed in HEK293 cells co-transfected with pGL4-NFAT promoter AP1-luc assessed as inhibition of 20 nM GnRH-induced NFAT activation pre-incubated for 1 hr before GnRH stimulation and measured after 6 hrs by luciferase reporter gene assay. The format is cell-based. In general terms: In a reporter assay the amount or activity of a reporter protein is the signal.
On to `Cc1c(N2CCN(Cc3cccc4occc34)CC2)c(=O)n(C[C@H](N)c2ccccc2)c(=O)n1Cc1c(F)cccc1C(F)(F)F`, for which the IC50 is above 300 nM.

Regarding `Cc1c(N2CCN(Cc3ccncn3)CC2)c(=O)n(C[C@H](N)c2ccccc2)c(=O)n1Cc1c(F)cccc1C(F)(F)F`, the IC50 is above 300 nM. Same read-out and setting: the figure for `Cc1c(N2CCN(Cc3cccc([S+](C)[O-])c3)CC2)c(=O)n(C[C@H](N)c2ccccc2)c(=O)n1Cc1c(F)cccc1C(F)(F)F` (some centres not stated) is 51.2 nM; for `Cc1c(N2CCN(Cc3cccc(C#N)c3F)CC2)c(=O)n(C[C@H](N)c2ccccc2)c(=O)n1Cc1c(F)cccc1C(F)(F)F` it is 61 nM; for `Cc1ccc(CN2CCN(c3c(C)n(Cc4c(F)cccc4C(F)(F)F)c(=O)n(C[C@H](N)c4ccccc4)c3=O)CC2)o1` it is above 300 nM. The same measure, in the same setting: with `Cc1c(N2CCN(Cc3cccc(F)c3C#N)CC2)c(=O)n(C[C@H](N)c2ccccc2)c(=O)n1Cc1c(F)cccc1C(F)(F)F` the figure was 108 nM; with `Cc1c(N2CCN(Cc3cccc(C(N)=O)c3F)CC2)c(=O)n(C[C@H](N)c2ccccc2)c(=O)n1Cc1c(F)cccc1C(F)(F)F`, 42 nM.

As for `Cc1c(N2CCN(Cc3ccc(C(F)(F)F)nc3)CC2)c(=O)n(C[C@H](N)c2ccccc2)c(=O)n1Cc1c(F)cccc1C(F)(F)F`, the IC50 was above 300 nM. On the same count and under the same terms, with `Cc1c(N2CCN(Cc3ccnc(C(F)(F)F)c3)CC2)c(=O)n(C[C@H](N)c2ccccc2)c(=O)n1Cc1c(F)cccc1C(F)(F)F` the figure was 226 nM; with `Cc1c(N2CCN(Cc3ccc(C(N)=O)o3)CC2)c(=O)n(C[C@H](N)c2ccccc2)c(=O)n1Cc1c(F)cccc1C(F)(F)F`, above 300 nM. With `Cc1c(N2CCN(Cc3nnc(C(F)(F)F)o3)CC2)c(=O)n(C[C@H](N)c2ccccc2)c(=O)n1Cc1c(F)cccc1C(F)(F)F`, the IC50 was above 300 nM. On the same count and under the same terms, with `Cc1c(N2CCN(Cc3cccc4cnoc34)CC2)c(=O)n(C[C@H](N)c2ccccc2)c(=O)n1Cc1c(F)cccc1C(F)(F)F` the figure was above 300 nM; with `Cc1c(N2CCN(Cc3ccc(C(C)(C)C)o3)CC2)c(=O)n(C[C@H](N)c2ccccc2)c(=O)n1Cc1c(F)cccc1C(F)(F)F`, above 300 nM; with `Cc1c(N2CCN(Cc3cc(C(F)(F)F)co3)CC2)c(=O)n(C[C@H](N)c2ccccc2)c(=O)n1Cc1c(F)cccc1C(F)(F)F`, above 300 nM. On to `Cc1c(N2CCN(Cc3cccc(C(F)(F)F)n3)CC2)c(=O)n(C[C@H](N)c2ccccc2)c(=O)n1Cc1c(F)cccc1C(F)(F)F`, for which the IC50 came to 217 nM. Still for that read-out and setting: the figure for `Cc1c(N2CCN(Cc3cccnc3C(F)(F)F)CC2)c(=O)n(C[C@H](N)c2ccccc2)c(=O)n1Cc1c(F)cccc1C(F)(F)F` is above 300 nM; for `Cc1c(N2CCN(Cc3cccc(=O)o3)CC2)c(=O)n(C[C@H](N)c2ccccc2)c(=O)n1Cc1c(F)cccc1C(F)(F)F` it is above 300 nM. Same read-out and setting: the figure for `CNC(=O)c1cccc(CN2CCN(c3c(C)n(Cc4c(F)cccc4C(F)(F)F)c(=O)n(C[C@H](N)c4ccccc4)c3=O)CC2)c1` is 170 nM.
